Key:
COX-2 = biological target: T1, COX-2 (Mus musculus, UniProt Q05769); assay: Assay for the COX-2 inhibitory activity using Raw 264.7 cell line (PGE2 inhibition); type: cell-based; details: RAW264.7; test compound 30 nM; RAW 264.7 cells; aspirin pre-treated, interferon + LPS 18 hours; PGE2 by EIA; read-out: Cyclooxygenase (COX) Inhibition (%) COX-2 (30 nM)
T1 construct: host or cells: RAW 264.7 cells, pre-treated with aspirin, then induced with interferon and LPS
T1 sequence (Q05769 18-604): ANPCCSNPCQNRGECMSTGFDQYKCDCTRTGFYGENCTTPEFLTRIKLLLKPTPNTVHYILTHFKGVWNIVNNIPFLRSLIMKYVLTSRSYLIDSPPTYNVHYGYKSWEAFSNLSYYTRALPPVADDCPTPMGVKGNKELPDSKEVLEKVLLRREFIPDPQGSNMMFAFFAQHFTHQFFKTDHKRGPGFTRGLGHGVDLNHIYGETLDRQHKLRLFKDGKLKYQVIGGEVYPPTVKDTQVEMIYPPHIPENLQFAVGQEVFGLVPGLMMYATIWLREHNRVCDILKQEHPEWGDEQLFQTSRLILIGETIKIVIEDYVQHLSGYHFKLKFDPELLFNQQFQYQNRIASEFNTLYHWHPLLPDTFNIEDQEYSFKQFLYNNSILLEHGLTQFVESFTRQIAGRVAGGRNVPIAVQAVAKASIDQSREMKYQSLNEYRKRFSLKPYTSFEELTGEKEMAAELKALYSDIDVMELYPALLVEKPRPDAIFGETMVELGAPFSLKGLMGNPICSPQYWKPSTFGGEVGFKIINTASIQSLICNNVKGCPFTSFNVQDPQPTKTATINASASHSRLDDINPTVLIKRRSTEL
Experimental: Each well was treated with 250 μM of aspirin and incubated at 37° C. for 2 hours. After the culture media were replaced with new culture media, the new culture media were treated with a test compound (30 nM) and incubated for 30 minutes. Then, each well was treated with interferon ? (100 units/ml) and lipopolysaccharide (LPS, 100 ng/ml) and incubated for 18 hours. The culture media were transferred to other test tubes. The concentration of PGE2 was quantified by means of the EIA kit (Cayman Chemicals).
(§1) The percentages of the COX inhibition were calculated according to the following equation: % Inhibition=(concentration of PGE2 in test compound-untreated sample−concentration of PGE2 in test compound-treated sample)/(concentration of PGE2 in test compound-untreated sample)×100

COX-1 = biological target: T2, COX-1 (Homo sapiens, UniProt P23219); assay: Assay for the COX-1 inhibitory activity using U-937 (PGE2 inhibition); type: cell-based; details: test compound 1 μM; U-937 human lymphoma cells; arachidonic acid substrate; PGE2 quantified; read-out: Cyclooxygenase (COX) Inhibition (%) COX-1 (1 μM)
T2 construct: host or cells: U-937 human lymphoma cells
T2 sequence (P23219 24-599): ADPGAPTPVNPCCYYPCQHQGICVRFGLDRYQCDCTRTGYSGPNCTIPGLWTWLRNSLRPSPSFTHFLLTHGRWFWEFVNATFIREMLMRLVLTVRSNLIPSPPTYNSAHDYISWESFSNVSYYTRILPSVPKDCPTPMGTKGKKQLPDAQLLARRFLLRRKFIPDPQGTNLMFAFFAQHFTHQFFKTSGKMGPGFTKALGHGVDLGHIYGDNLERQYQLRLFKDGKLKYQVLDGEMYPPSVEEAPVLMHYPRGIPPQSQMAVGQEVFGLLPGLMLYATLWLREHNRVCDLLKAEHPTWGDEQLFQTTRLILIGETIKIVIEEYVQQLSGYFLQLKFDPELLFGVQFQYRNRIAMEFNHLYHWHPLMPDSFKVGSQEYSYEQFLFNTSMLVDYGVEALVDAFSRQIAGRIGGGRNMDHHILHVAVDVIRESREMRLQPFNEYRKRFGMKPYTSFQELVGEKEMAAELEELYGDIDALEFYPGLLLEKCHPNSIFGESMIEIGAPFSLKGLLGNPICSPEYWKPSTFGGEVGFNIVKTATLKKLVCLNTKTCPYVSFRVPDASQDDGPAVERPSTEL
Experimental: The collected cells were diluted with HBSS (×1, Hank's balanced salt solution) to a concentration of 1×10^6 cells/ml. 1 ml of the dilute cell solution was placed into each well of 12-well plates. 5 μl of 1 μM solution of a test compound in DMSO and 5 μl of DMSO as a control were added to the wells. The wells were incubated in CO2 incubator at 37° C. for 15 minutes. Separately, 10 mM stock solution of arachidonic acid in ethanol was diluted ten times in ethanol to prepare 1 mM solution of arachidonic acid. Arachidonic acid acts as a substrate. 10 μl of the 1 mM solution of arachidonic acid was added to each well and incubated at CO2 incubator at 37° C. for 30 minutes. The cell solution of each well was placed in a centrifuge test tube and centrifuged at 10,000 rpm at 4° C. for 5 minutes. The concentration of PGE2 in the collected cells and the supernatant was quantified by means of a monoclonal kit (Cayman Chemicals). The percentages of PGE2 inhibition in a group of the test compound-treated cells in relation to a group of the DMSO-treated cells were calculated. Based on the calculated values, the COX-1 inhibitory activities were evaluated.
as §1

| Compound | inhibition at 0.03 µM (COX-2) [%] | inhibition at 1 µM (COX-1) [%] | melting point [°C] |
| --- | --- | --- | --- |
| COc1ccc(-c2c(-c3ccc(S(C)(=O)=O)cc3)ssc2=S)cc1OC [Example 60, 4-(3,4-dimethoxyphenyl)-5-(4-methanesulfonylphenyl)-[1,2]dithiol-3-thione] | 19.3 | 26.5 | 182 to 183 |
| CS(=O)(=O)c1ccc(-c2ssc(=S)c2-c2ccccc2Br)cc1 [Example 61, 4-(2-bromophenyl)-5-(4-methanesulfonylphenyl)-[1,2]dithiol-3-thione] | 20.1 | 23.3 | 179 to 180 |
| CS(=O)(=O)c1ccc(-c2ssc(=S)c2-c2ccccc2F)cc1 [Example 62, 4-(2-fluorophenyl)-5-(4-methanesulfonylphenyl)-[1,2]dithiol-3-thione] | 21 | 26.6 | 173 to 174 |
| CS(=O)(=O)c1ccc(-c2ssc(=S)c2-c2ccc(F)cc2F)cc1 [Example 63, 4-(2,4-difluorophenyl)-5-(4-methanesulfonylphenyl)-[1,2]dithiol-3-thione] | 21.3 | 20.3 | 148 to 149 |
| CCCOc1ccc(-c2c(-c3ccc(S(C)(=O)=O)cc3)ssc2=S)cc1 [Example 68, 5-(4-methanesulfonylphenyl)-4-(4-propoxyphenyl)-[1,2]dithiol-3-thione] | 22.7 | 25.5 | 177 to 178 |
| CC(=O)Oc1ccc(-c2c(-c3ccc(S(C)(=O)=O)cc3)ssc2=S)cc1 [Example 69, Acetic acid 4-[5-(4-methanesulfonylphenyl)-3-thioxo-3H-[1,2]dithiol-4-yl]phenyl ester] | 21.3 | 24.8 | 241 to 243 |
| CCOc1ccc(-c2c(-c3ccc(S(C)(=O)=O)cc3Cl)ssc2=S)cc1 [Example 70, 5-(2-chloro-4-methanesulfonylphenyl)-4-(4-ethoxyphenyl)-[1,2]dithiol-3-thione] | 36 | 17.5 | 190 to 191 |
| CS(=O)(=O)c1ccc(-c2ssc(=S)c2-c2ccc(Br)cc2)c(Cl)c1 [Example 72, 4-(4-bromophenyl)-5-(2-chloro-4-methanesulfonylphenyl)-[1,2]dithiol-3-thione] | 19.3 | 28.1 | 194 to 195 |
| COc1ccc(-c2c(-c3ccc(S(C)(=O)=O)cc3Cl)ssc2=S)cc1 [Example 73, 5-(2-chloro-4-methanesulfonylphenyl)-4-(4-methoxyphenyl)-[1,2]dithiol-3-thione] | 20.1 | 25.6 | 192 to 193 |
| Cc1ccc(-c2c(-c3ccc(F)c(F)c3)ssc2=S)cc1 [Example 74, 5-(3,4-difluorophenyl)-4-p-toryl-[1,2]dithiol-3-thione] | 19.2 | 26.5 | 140 to 142 |
| CC(=O)Oc1ccc(-c2c(-c3ccc(S(C)(=O)=O)c(F)c3)ssc2=S)cc1 [Example 79, Acetic acid 4-[5-(3-fluoro-4-methanesulfonylphenyl)-3-thioxo-3H-[1,2]dithiol-4-yl]-phenyl ester] | 30.2 | 19.5 | 200 to 201 |
| CS(=O)(=O)c1ccc(-c2[nH][nH]c(=S)c2-c2ccc(Cl)cc2)cc1 [Example 82, 4-(4-chlorophenyl)-5-(4-methanesulfonylphenyl)-1,2-dihydropyrazole-3-thione] | 22.2 | 24.3 | 211 to 213 |

Next, values leading:

| inhibition at 0.03 µM (COX-2) [%] | inhibition at 1 µM (COX-1) [%] | melting point [°C] | Compound |
| --- | --- | --- | --- |
| 19.7 | 23.2 | 184 to 185 | CS(=O)(=O)c1ccc(-c2ssc(=S)c2-c2ccc(F)cc2Cl)cc1 [Example 59, 4-(2-chloro-4-fluorophenyl)-5-(4-methanesulfonylphenyl)-[1,2]dithiol-3-thione] |
| 19.8 | 21.6 | 193 to 194 | CS(=O)(=O)c1ccc(-c2ssc(=S)c2-c2ccc(F)c(F)c2)cc1 [Example 64, 4-(3,4-difluorophenyl)-5-(4-methanesulfonylphenyl)-[1,2]dithiol-3-thione] |
| 23.3 | 27.5 | 179 to 180 | CC(C)Oc1ccc(-c2c(-c3ccc(S(C)(=O)=O)cc3)ssc2=S)cc1 [Example 67, 4-(4-isopropoxylphenyl)-5-(4-methanesulfonylphenyl)-[1,2]dithiol-3-thione] |
| 19.6 | 26.6 | 143 to 145 | COc1ccc(-c2c(-c3ccc(F)c(F)c3)ssc2=S)cc1 [Example 75, 5-(3,4-difluorophenyl)-4-(4-methoxyphenyl)-[1,2]dithiol-3-thione] |
| 20.3 | 21.6 | 147 to 149 | CC(=O)Oc1ccc(-c2c(-c3ccc(F)c(F)c3)ssc2=S)cc1 [Example 76, Acetic acid 4-[5-(3,4-difluorophenyl)-3-thioxo-3H-[1,2]dithiol-4-yl]-phenyl ester] |
| 24.6 | 24.9 | 192 to 193 | CS(=O)(=O)c1ccc(-c2[nH][nH]c(=S)c2-c2ccc(Cl)c(Cl)c2)cc1 [Example 81, 4-(3,4-dichlorophenyl)-5-(4-methanesulfonylphenyl)-1,2-dihydropyrazole-3-thione] |

Source: patent publication US7781592B2, “Thione derivative, method for the preparation thereof, and pharmaceutical composition containing the same” (CJ Cheiljedang Corporation, priority 2003, dated 2010)
